Columns and labels:
RbMDH = target: T1, RbMDH (Rickettsia bellii, UniProt Q1RIT9); type: biochemical
T1 construct: gene mdh

AncMDH2 = type: biochemical, synthetic construct; conditions: 200 uM NADH, 50 mM Tris pH 7.5, 50 mM KCl, 25 C

T1 sequence (Q1RIT9 whole entry, looked up): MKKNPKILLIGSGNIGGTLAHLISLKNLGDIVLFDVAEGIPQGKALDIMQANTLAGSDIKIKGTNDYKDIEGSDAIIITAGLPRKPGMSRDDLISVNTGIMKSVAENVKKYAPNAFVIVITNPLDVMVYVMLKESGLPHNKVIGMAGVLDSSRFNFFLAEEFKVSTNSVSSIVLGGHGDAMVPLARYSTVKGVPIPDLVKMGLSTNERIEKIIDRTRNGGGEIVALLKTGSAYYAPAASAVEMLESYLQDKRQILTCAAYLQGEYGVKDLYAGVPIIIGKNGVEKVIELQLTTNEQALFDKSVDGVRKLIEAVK

SMILES | KM (RbMDH) | Km (AncMDH2) [mM]
O=C(O)CC(=O)C(=O)O [oxaloacetate] | RbMDH is a representative α-proteobacterial MDH from Rickettsia bellii | 
CC(=O)C(=O)O [pyruvate] |  | 20

From paper PMC4109310, “An atomic-resolution view of neofunctionalization in the evolution of apicomplexan lactate dehydrogenases” (eLife, 2014)
